Test results: publication PMC11555231 (Nature Communications, 2024)
Bridge positions count the residues as written; N and C are the ends. Peptide text beside a SMILES is read from it.

What was measured:
HaLo-GFP-mito HeLa cells = experiment: Chloroalkane penetration assay (CAPA); type: in vitro ADME; details: CAPA, chloroalkane-tagged peptide, 4 h in Opti-MEM, 37 °C, chase HaLo-Tag TMR ligand 5 µM 15 min, flow cytometry; mean ± SEM of three independent experiments
Method: Following the addition of chloroacetyl-NHS to the N-terminal amino group, Cys(mmt) was selectively deprotected using 1% TFA, 5% triisopropylsilane in DCM (30 min, RT). Peptides were then cyclised on resin using 2% diisopropylethylamine in DMF overnight. Following cyclisation, Lys(ivDde) was deprotected using 2% hydrazine in DMF. The resin was then washed (3 x DCM, 3 x DMF) before on-resin coupling of chloroalkane carboxylic acid was performed on the lysine side chain using Hexafluorophosphate Azabenzotriazole Tetramethyl Uronium / diisopropylethylamine in DMF for 2 h. Global deprotection and purification were then carried out as described above. Chloroalkane carboxylate was synthesised as previously described.
CAPA assays were performed following the protocol published in ref. [51]. In brief, 40,000 HaLo- GFP-mito HeLa cells were seeded in a 96-well plate. Twenty-four hours later, cells were treated with different concentrations of chloroalkane-tagged peptides (100 µM to 200 nM for PADI4_3 and PADI4_3i and 50 µM to 100 nM for PADI4_11 and PADI4_11i) for 4 h in Opti-MEM. Media containing peptides was then removed, and cells were incubated with Opti-MEM (Gibco) for 15 min. After that time, the wash was removed, and cells were chased with HaLo-Tag TMR ligand (5 µM, Promega) in Opti-MEM for 15 min. The ligand was then removed, and cells were incubated with Opti-MEM for 30 min. Cells were then trypsinised, resuspended in phosphate-buffered saline (PBS) with 0.5% FBS and analysed using a benchtop flow cytometer (MACSQuant® VYB Flow cytometer Milteny Biotec). For each well, 10000 GFP positive single cells were analysed (gating workflow shown in Supplementary Fig. 18), and TMR mean fluorescence was normalised against a positive control (cells treated with HaLo-Tag TMR ligand but no peptide) and a negative control (non-treated cells). Analysis was performed using FlowJo (LCC) software and Prism GraphPad (Dotmatics). Data were presented as the average ± standard error of three independent replicates.

hPADI4-stable mES cells = experiment: High content microscopy of citrullinated histone H3 (H3Cit) in hPADI4-stable mES cells; type: cell-based, mouse; details: mean H3Cit intensity, peptide 1 h, without any other activating stimulus
Method: HaLo-GFP-mito HeLa cells were grown in DMEM (Gibco) supplemented with 10% foetal bovine serum (FBS), penicillin/streptomycin (100 µg/ml) and puromycin (1 µg/ml) at 37 °C, 5% CO2. HaLo-GFP-mito HeLa cell line[82] was profiled by short tandem repeat analysis (STR) and tested negative for mycoplasma by the Cell Services Technology Platform at the Francis Crick Institute. E14 –mouse embryonic stem cells (Cambridge Stem Cell Institute, UK) were cultured in plates coated with 1% gelatine in GMEM supplemented with 10% foetal calf serum (FCS) batch-tested for ES cell culture (Gibco), 0.1 mM non-essential amino acids, 2 mM L-glutamine, 1 mM sodium pyruvate, 0.1 mM β-mercaptoethanol and 50 ng/mL leukaemia inhibitory factor (LIF) (ESGRO, Millipore). For PADI4 activation, cells were cultured in GMEM containing 10% knockout serum replacement (KSR, Life Technologies), 1% FCS batch-tested for ES cell culture (Gibco), 0.1 mM non-essential amino acids, L-glutamine, 1 mM sodium pyruvate, 0.1 mM β-mercaptoethanol, 50 ng/mL LIF (ESGRO, Millipore), 1 μM PD0325901 (AxonMedChem) and 3 μM CHIR99021 (AxonMedChem). For the generation of E14 mES stably expressing human PADI4 (hPADI4-stable), human PADI4 cDNA was inserted into ES E14 cells using the piggyBac transposon system. The Gateway system was used to clone human PADI4 into the piggyBac vector using primers PADI4_AttB1_F and PADI4_AttB2_R (Table S4). pPB-CAG-CTRL (empty vector) or pPB-CAG-hPADI4 vectors […] were transfected with the piggyBac transposase (pPBase) expression vector, pCAGPBase […], by lipofection according to the manufacturer’s instructions (Lipofectamine 2000, Invitrogen). E14 cells constitutively expressing the hygromycin resistance gene and human PADI4 were selected and expanded in media containing […] hygromycin.
E14 cells were seeded onto 96-well PerkinElmer cell carrier ultra plates (Phenoplates) coated with 0.1% gelatine, at 25,000 cells per well and grown overnight at 37 °C, 5% CO2. Outer wells were excluded but medium was added to minimise any edge effects. […]

[1] = test system: calcium influx into cells; experiment: Calcium imaging with Calbryte 520 AM; type: cell-based; details: Calbryte intensity, 25 µM peptide, 60 min
Method: Calbryte™ 520 AM dye (https://www.aatbio.com/products/calbryte-520-am) was used for quantification of calcium influx into cells. Cells were seeded onto 10 mm optical imaging plates at 10^5 cells per dish and allowed to attach overnight. Cells were stained with 10 μM Calbryte dye in normal growth medium for 1 h, 37 °C, 5% CO2, washed once with cell culture medium and imaged using a Nikon Wide-field microscope. A time series was performed, with a 488 laser image taken every second. After 1 min of imaging (baseline readings), PADI4_11 (25 μM), PADI4_11i (25 μM) or calcium ionophore (10 μM, as positive control) were added, and cells were imaged for a further 60 min. Analysis was done using imageJ —region of interest (ROI) were taken for each cell at each time point using ROI manager. Background values (ROI with no cells) were taken at each time point and removed from the same background reading (i.e. ROI at 1 second with cells minus ROI at 1 s background value). An average of at least ten cells was taken for each condition and each average data point was divided by the initial average data point for that cell, to obtain overall response.

[2] = test system: cellular PADI4 in hPADI4-stable mES cell extracts; experiment: Cell lysate activity assay, H3Cit2 immunoblot, with or without pre-incubation before calcium; type: biochemical, mouse; details: inhibitor added 20 mins prior (pre-incubation) or concurrent with calcium
From the text: Neutrophil samples were boiled in a sodium dodecyl sulphate (SDS) buffer containing dithiothreitol (DTT) and run on a polyacrylamide gel electrophoresis (SDS-PAGE) using Criterion TGX precast gels (Any-KD; Bio-Rad Laboratories). Proteins were then transferred to a PVDF membrane (Bio-Rad Laboratories) via semi-dry transfer. The membrane was blocked with 5% BSA (Fisher Scientific) in Tris-buffered saline with 0.1% Tween-20 (TBS-T). Levels of citrullinated histone H3, total H3 and myeloperoxidase (MPO) were assessed by incubating membranes in either anti-histone H3 citrulline R2 + R8 + R17 (Abcam; ab5103 1:1000), anti-histone H3 (Millipore; 07-690 1:10000) or anti-MPO (DAKO; A0398 1:2500) overnight at 4 °C, respectively. For cell lysate-based assays and pull-down assays, membranes were incubated as above with anti-hPADI4 (Abcam; ab50332; 1:1000 in 5% BSA/TBS-T), anti-Bcr (Cell Signalling #3902S; 1:1000 in 3% milk/TBS-T) and anti-Impdh2 (Cell Signalling #57068S; 1:1000 in 3% milk/TBS-T). Membranes were washed in 0.1% TBS-T and subsequently incubated with goat anti-rabbit HRP or anti-goat (Fisher Scientific) for 1 h, followed by final washes in 0.1% TBS-T. Membranes were imaged with enhanced chemiluminescent substrate (ECL) (Thermo Fisher) on a Bio-Rad imager.
Supplementary Figure 2. PADI4_3 is a potent and selective hPADI4 inhibitor. A. […]

Row | SMILES | CP50 (HaLo-GFP-mito HeLa cells) [µM] | PADI4 activation in cells (in words) (hPADI4-stable mES cells) | intracellular calcium levels (calcium influx) [1] | inhibition of histone 3 citrullination (H3Cit) in cell lysates containing active cellular PADI4 [2]
1 | CC(C)C[C@H](NC(=O)[C@H](CCC(N)=O)NC(=O)[C@H](CC(C)C)NC(=O)[C@@H](NC(=O)[C@H](CCC(N)=O)NC(=O)[C@H](CCCNC(=N)N)NC(=O)[C@H](Cc1ccc(O)cc1)NC(=O)[C@H](CCCNC(=N)N)NC(=O)[C@@H]1CSCC(=O)N[C@@H](Cc2ccc(O)cc2)C(=O)N[C@@H](CO)C(=O)N[C@@H](CCC(=O)O)C(=O)N1)C(C)C)C(N)=O [PADI4_11i] ({CH2CO}-YSECRYRQVLQL-NH2; thioether N-4) | 2.0 ± 0.5 | does not have the same effect | neither PADI4_11, nor PADI4_11i, were responsible for increased intracellular calcium levels | –
2 | COc1cc(C(=O)N2CC[C@@H](O)[C@@H](N)C2)cc2nc(-c3cc4ccccc4n3CC3CC3)n(C)c12 [GSK484] | – | – | – | required pre-incubation to be active
